USRE48461E1, “Modulation of androgen receptor expression” (Ionis Pharmaceuticals, Inc., priority 2012, dated 2021)
Oligonucleotides are written 5' to 3', each unit as a sugar letter and its base; * is a phosphorothioate linkage, no mark a phosphodiester; rarer units and linkages stand in square brackets, end groups in braces. Plain capitals give the bases only. e = 2'-O-(2-methoxyethyl) (MOE); k = constrained ethyl (cEt); [5mC] = 5-methylcytosine; d = 2'-deoxy (DNA)

Key:
AR mRNA [1] = test: AR mRNA in LnCaP cells by free uptake (hAR_LTS00943); type: cell-based, human; conditions: 24 hrs
Description: Cells were plated at a concentration of 4,000 cells/well in 96-well plates. ISIS oligonucleotides, specified in Table 68, were added individually at 0.02 μM, 0.10 μM, 0.50 μM, 2.50 μM, or 10.00 μM. After an incubation period of 24 hrs, mRNA levels were measured using primer probe set hAR_LTS00943.

AR mRNA [2] = test: Antisense inhibition of human AR in HuVEC cells, single concentration (electroporation, qRT-PCR RTS3559); type: cell-based; conditions: ~24 h
Method in brief: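 HuVEC cells electroporated with antisense oligonucleotides at a single concentration. AR mRNA quantified by qRT-PCR using human primer-probe set RTS3559 and normalised to total RNA content by RIBOGREEN.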

AR mRNA [3] = test: Dose-dependent antisense inhibition of human AR in HuVEC cells (electroporation, qRT-PCR RTS3559, IC50); type: cell-based
Method in brief: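 HuVEC cells dosed with antisense oligonucleotides by electroporation and treated approximately 16 hours. AR mRNA quantified by real-time qPCR with primer probe set RTS3559 and normalised to total RNA by RIBOGREEN; IC50 from dose-response.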

[4] = 31.25 nM, HuVEC, ~16 h, Table 8
[5] = 125.0 nM, HuVEC, ~16 h, Table 8
[6] = 500.0 nM, HuVEC, ~16 h, Table 8
[7] = 1000.0 nM, HuVEC, ~16 h, Table 8

569213 (antisense kT*kG*kA*dT*dT*dT*dA*dA*dT*dG*dG*dT*kT*kG*k[5mC]*eA) [compound 569213]
Percent inhibition of AR mRNA (AR mRNA [1]; 0.02 μM): 3%
Percent inhibition of AR mRNA (AR mRNA [1]; 0.1 μM): 0%
Percent inhibition of AR mRNA (AR mRNA [1]; 0.5 μM): 31%
Percent inhibition of AR mRNA (AR mRNA [1]; 10 μM): 78%
% inhibition (AR mRNA [2]; 250 nM ASO, Table 7): 69%
percent inhibition of AR (AR mRNA [3]; [4]): 35%
percent inhibition of AR (AR mRNA [3]; 62.5 nM, HuVEC, ~16 h, Table 8): 53%
percent inhibition of AR (AR mRNA [3]; [5]): 65%
percent inhibition of AR (AR mRNA [3]; [6]): 94%
percent inhibition of AR (AR mRNA [3]; [7]): 96%
IC50 (AR mRNA [3]; HuVEC, ~16 h, Table 8): 60 nM

569216 (antisense eT*kG*kA*kT*dT*dT*dA*dA*dT*dG*dG*dT*kT*kG*k[5mC]*eA) [compound 569216]
Percent inhibition of AR mRNA (AR mRNA [1]; 0.02 μM): 15%
Percent inhibition of AR mRNA (AR mRNA [1]; 0.1 μM): 17%
Percent inhibition of AR mRNA (AR mRNA [1]; 0.5 μM): 49%
Percent inhibition of AR mRNA (AR mRNA [1]; 10 μM): 82%
% inhibition (AR mRNA [2]; 250 nM ASO, Table 7): 68%
percent inhibition of AR (AR mRNA [3]; [4]): 38%
percent inhibition of AR (AR mRNA [3]; 62.5 nM, HuVEC, ~16 h, Table 8): 51%
percent inhibition of AR (AR mRNA [3]; [5]): 68%
percent inhibition of AR (AR mRNA [3]; [6]): 91%
percent inhibition of AR (AR mRNA [3]; [7]): 96%
IC50 (AR mRNA [3]; HuVEC, ~16 h, Table 8): 50 nM

586124 (kG*kA*kT*dT*dT*dA*dA*dT*dG*dG*dT*dT*dG*k[5mC]*kA*kA; further chemistry not given here) [compound 586124]
Percent inhibition of AR mRNA (AR mRNA [1]; 0.02 μM): 0%
Percent inhibition of AR mRNA (AR mRNA [1]; 0.1 μM): 0%
Percent inhibition of AR mRNA (AR mRNA [1]; 0.5 μM): 19%
Percent inhibition of AR mRNA (AR mRNA [1]; 10 μM): 82%
% inhibition (AR mRNA [2]; 1,000 nM ASO, Table 13): 82%
percent inhibition of AR (AR mRNA [3]; 46.9 nM, HuVEC, ~16 h, Table 15): 28%
percent inhibition of AR (AR mRNA [3]; 187.5 nM, HuVEC, ~16 h, Table 15): 47%
percent inhibition of AR (AR mRNA [3]; 750.0 nM, HuVEC, ~16 h, Table 15): 84%
percent inhibition of AR (AR mRNA [3]; 3000.0 nM, HuVEC, ~16 h, Table 15): 94%
IC50 (AR mRNA [3]; HuVEC cells, electroporation): 130 nM
inhibition of AR mRNA at 46.9 nM (AR mRNA [3]; HuVEC cells, electroporation, 46.9 nM ASO): 28%
inhibition of AR mRNA at 187.5 nM (AR mRNA [3]; HuVEC cells, electroporation, 187.5 nM ASO): 47%
inhibition of AR mRNA at 750.0 nM (AR mRNA [3]; HuVEC cells, electroporation, 750.0 nM ASO): 84%
inhibition of AR mRNA at 3000.0 nM (AR mRNA [3]; HuVEC cells, electroporation, 3000.0 nM ASO): 94%
IC50 (AR mRNA [3]; HuVEC, ~16 h, Table 15): 130 nM
